The source made the active and inactive calls.
Key:
[1] = target: T1, Coagulation factor XII (Homo sapiens, UniProt P00748); assay: Factor XIIa Dose Response Confirmation from Single Well HTS. [Related pubchem assays (depositor defined):AID701]; format: functional
T1 sequence (P00748 whole entry): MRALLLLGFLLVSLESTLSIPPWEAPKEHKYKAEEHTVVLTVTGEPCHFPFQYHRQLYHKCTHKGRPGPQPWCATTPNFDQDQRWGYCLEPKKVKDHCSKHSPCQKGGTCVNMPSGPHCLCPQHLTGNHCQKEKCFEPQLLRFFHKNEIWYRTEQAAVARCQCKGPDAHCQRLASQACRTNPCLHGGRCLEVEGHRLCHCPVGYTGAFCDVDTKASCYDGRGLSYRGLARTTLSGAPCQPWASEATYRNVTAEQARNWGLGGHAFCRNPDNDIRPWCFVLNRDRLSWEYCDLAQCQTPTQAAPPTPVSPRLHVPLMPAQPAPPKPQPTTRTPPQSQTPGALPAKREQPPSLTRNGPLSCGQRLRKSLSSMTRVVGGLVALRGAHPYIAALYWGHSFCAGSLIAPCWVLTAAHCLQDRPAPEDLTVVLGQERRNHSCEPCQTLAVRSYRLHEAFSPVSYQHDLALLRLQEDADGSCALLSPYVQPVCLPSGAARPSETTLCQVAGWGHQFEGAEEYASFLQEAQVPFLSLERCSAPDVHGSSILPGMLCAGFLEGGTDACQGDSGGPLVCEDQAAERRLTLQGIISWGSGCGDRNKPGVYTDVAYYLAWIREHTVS

[2] = target: Mitogen-activated protein kinase 10 (Homo sapiens, UniProt P53779); assay: Dose response biochemical screening assay for inhibitors of c-Jun N-Terminal Kinase 3 (JNK3). [Related pubchem assays: 746 ]
[3] = target: Lysosomal acid glucosylceramidase (Homo sapiens, UniProt P04062); assay: Dose response cell-based high throughput screening assay to identify enhancers of beta-glucosidase activity. [Related pubchem assays: 784 ]; format: functional
[4] = target: SUMO-activating enzyme (Homo sapiens, UniProt Q9UBT2); assay: blockers of UBC9-mediated SUMO conjugation – biochemical, AlphaScreen, SUMOylation inhibitor project, confirmation (AID 2018); format: functional
[5] = target: Voltage-dependent T-type calcium channel subunit alpha-1H (Homo sapiens, UniProt O95180); assay: human CACNA1H calcium influx blockade – cell-based, synthetic library set 2, HEK293 HH8, Fluo-4, SAR follow-up (AID 493023); format: functional
[6] = target: T2, E3 ubiquitin-protein ligase XIAP (Homo sapiens, UniProt P98170); assay: small molecules displacing peptide from XIAP – biochemical, IAP family, fluorescence polarization (AID 1018); format: functional
[7] = target: T2, E3 ubiquitin-protein ligase XIAP; assay: Counter Screen using XIAP-Bir3 for Chemical Antagonists of Bir1/2 domains of IAP-family anti-apoptotic proteins. [Related pubchem assays (depositor defined):AID1018, AID1449, AID1514, AID1638, AID1749, AID1750, AID488957, AID488963]
[8] = target: T3, Runt-related transcription factor 1/Core-binding factor subunit beta (Homo sapiens, UniProt Q01196+Q13951); assay: disruptors of Runt domain/CBFb-SMMHC interaction – biochemical, FRET, Cerulean-Runt, Venus-CBFb-SMMHC, uHTS, […] (AID 1434); format: protein assay
[9] = viability of HCT116 lacking mutant beta-catenin – cell-based, human colon tumor, dose response (AID 1045); format: functional;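 note: HCT116 colon tumor cells with beta catenin knocked out; cells exposed to compound for 60 hours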
[10] = target: T3, Runt-related transcription factor 1/Core-binding factor subunit beta; assay: Runt domain/CBFb-SMMHC interaction disruptors – biochemical, TR-FRET (AID 1438); format: protein assay
[11] = viability of PTEN-deleted HCT116 cells – cell-based, HCT116 PTEN knockout, dose response (AID 1047); format: functional;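 note: HCT116 colon tumor cells with PTEN knocked out; cells exposed to compound for 60 hours before readout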
[12] = target: Beta Lactamase (Pseudomonas aeruginosa, UniProt Q932Y6); assay: BLA reporter interference, concentration series – BLA reporter cells, FRET fluorescence, artefact control for TLR9-MyD88 binding inhibitor project, dose response (AID 588341); format: cell-based;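 note: cell based assay in CHO-K1 cells stably expressing beta-lactamase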
[13] = target: Kallikrein-7 (Homo sapiens, UniProt P49862); assay: Fluorescence Intensity-based biochemical primary high throughput dose response assay to identify activators of kallikrein-7 (K7) zymogen.
[14] = target: T4, Microphthalmia-associated transcription factor (Homo sapiens, UniProt O75030); assay: reducers of TRPM1 reporter luminescence, concentration series – cell-based, SK-MEL-5, cherry-picked, set 3, MITF inhibitor project, dose response (AID 493073); format: functional;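 note: SK-MEL-5 melanoma cells with luciferase driven by the MITF target TRPM1 promoter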
T4 sequence (O75030 whole entry): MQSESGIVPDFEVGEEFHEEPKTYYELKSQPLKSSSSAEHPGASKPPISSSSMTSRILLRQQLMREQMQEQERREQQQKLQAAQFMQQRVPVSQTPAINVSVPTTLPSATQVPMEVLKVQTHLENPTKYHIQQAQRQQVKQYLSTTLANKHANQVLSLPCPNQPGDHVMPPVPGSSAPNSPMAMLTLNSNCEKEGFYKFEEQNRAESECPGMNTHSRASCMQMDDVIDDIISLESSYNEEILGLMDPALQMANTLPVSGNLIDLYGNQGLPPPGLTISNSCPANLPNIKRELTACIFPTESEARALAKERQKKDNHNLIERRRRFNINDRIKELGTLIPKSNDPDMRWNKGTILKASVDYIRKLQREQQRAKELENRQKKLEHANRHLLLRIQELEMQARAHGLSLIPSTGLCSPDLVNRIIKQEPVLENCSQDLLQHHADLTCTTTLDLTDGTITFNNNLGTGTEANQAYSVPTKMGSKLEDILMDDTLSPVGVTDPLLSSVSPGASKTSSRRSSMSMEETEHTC

[15] = tested on: CHO; assay: CHO cell viability loss, potency – luminescence, cytotoxicity control for TLR9-MyD88 binding inhibitor project, dose response (AID 588339); format: functional, cell-based, hamster; conditions: Cricetulus griseus;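 note: CHO cells stably coexpressing TLR9 and MyD88 fusions from primary screen; compound exposure lasted 48 hours before viability readout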
[16] = target: T5, Type-1 angiotensin II receptor (Homo sapiens, UniProt P30556); assay: agonist activity at AGTR1 – cell-based, uHTS hits, selectivity assay for APJ receptor agonist project, dose response (AID 488865); format: functional;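 note: beta-arrestin recruitment to AT1 measured by enzyme fragment complementation luminescence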
T5 sequence (P30556 whole entry): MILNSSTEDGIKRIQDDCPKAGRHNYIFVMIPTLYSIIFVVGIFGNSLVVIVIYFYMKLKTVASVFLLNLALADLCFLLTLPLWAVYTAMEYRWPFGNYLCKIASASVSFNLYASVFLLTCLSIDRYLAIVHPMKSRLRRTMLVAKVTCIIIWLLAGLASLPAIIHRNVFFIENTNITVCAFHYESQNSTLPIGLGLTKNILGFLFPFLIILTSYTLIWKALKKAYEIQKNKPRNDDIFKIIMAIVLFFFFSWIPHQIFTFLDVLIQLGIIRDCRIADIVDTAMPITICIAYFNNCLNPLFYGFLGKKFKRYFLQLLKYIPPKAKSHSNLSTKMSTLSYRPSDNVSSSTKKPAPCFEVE

[17] = target: T6, Kappa-type opioid receptor (Homo sapiens, UniProt P41145); assay: SAR analysis of Antagonists of the Kappa Opioid Receptor (KOR) using an Image-Based Assay - Set 4. [Related pubchem assays (depositor defined):AID1777, AID1785]; format: functional
[18] = target: T6, Kappa-type opioid receptor; assay: SAR analysis of small molecule antagonists of the kappa opioid receptor via a luminescent beta-arrestin assay - Set 3. [Related pubchem assays (depositor defined):AID1777, AID1778, AID1785, AID1786, AID1966, AID2133, AID2136, AID2285, AID2495]; format: functional
[19] = target: Mu-type opioid receptor (Homo sapiens, UniProt P35372); assay: SAR Analysis of Antagonists of the MOR Receptor using an Image-Based Assay - Set 3. [Related pubchem assays (depositor defined):AID1777, AID1785, AID1786, AID1966, AID2133, AID2136, AID2284, AID2285, AID2420]; format: functional
[20] = target: T6, Kappa-type opioid receptor; assay: SAR analysis of small molecule antagonists of the kappa opioid receptor via a luminescent beta-arrestin assay - Set 6. [Related pubchem assays (depositor defined):AID1777, AID1778, AID1785, AID1786, AID1966, AID2133, AID2136, AID2285]; format: functional
[21] = target: Delta-type opioid receptor (Homo sapiens, UniProt P41143); assay: SAR Analysis of Antagonists of the DOR Receptor using an Image-Based Assay - Set 3. [Related pubchem assays (depositor defined):AID1777, AID1785]; format: functional;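 note: U2OS cells expressing DOR1 and beta-arrestin GFP stimulated with 100 nM SNC80; imaging of GFP-tagged beta-arrestin moving into spots after receptor activation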
[22] = target: T7, Cannabinoid receptor 2 (Homo sapiens, UniProt P34972); assay: SAR analysis of agonists of the Cannabinoid Receptor 2 using an Image-Based Assay - Set 3. [Related pubchem assays (depositor defined):AID2013, AID2026]; format: functional
[23] = target: T8, Cannabinoid receptor 1 (Homo sapiens, UniProt P21554); assay: SAR analysis of antagonists of the Cannabinoid Receptor 1 using an Image-Based Assay - Set 4. [Related pubchem assays (depositor defined):AID2013, AID2026]; format: functional
[24] = target: T9, G-protein coupled receptor 35 (Homo sapiens, UniProt Q9HC97); assay: SAR analysis of Agonists of the GPR35 Receptor using an Image-Based Assay - Set 4. [Related pubchem assays (depositor defined):AID2013, AID2026]; format: functional
[25] = target: Cytochrome P450 2D6 (Homo sapiens, UniProt P10635);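 note: CYP2D6 member of a cytochrome P450 panel assay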
[26] = target: G-protein coupled receptor 55 (Homo sapiens, UniProt Q9Y2T6); assay: SAR Analysis of Selective Antagonists of GPR55 using an Image-Based Assay - Set 4. [Related pubchem assays (depositor defined):AID2013, AID2026]; format: functional;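 note: antagonism of response to 5 µM lysophosphatidylinositol agonist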
[27] = target: T7, Cannabinoid receptor 2; assay: SAR analysis of antagonists of the Cannabinoid Receptor 2 using an Image-Based Assay - Set 3. [Related pubchem assays (depositor defined):AID2013, AID2026]; format: functional
[28] = target: Cytochrome P450 2C19 (Homo sapiens, UniProt P33261); assay: Cytochrome panel assay with activity outcomes. Panel member name: p450-cyp2c19 Compounds with AC50 equal or less than 10 uM are considered active; format: functional; conditions: read-out: AC50
[29] = target: T8, Cannabinoid receptor 1; assay: SAR analysis of agonists of the Cannabinoid Receptor 1 using an Image-Based Assay - Set 4. [Related pubchem assays (depositor defined):AID2013, AID2026]; format: functional
[30] = target: T9, G-protein coupled receptor 35; assay: SAR analysis of Antagonists of the GPR35 Receptor using an Image-Based Assay - Set 6. [Related pubchem assays (depositor defined):AID2013, AID2026]; format: functional

T6 sequence (P41145 whole entry): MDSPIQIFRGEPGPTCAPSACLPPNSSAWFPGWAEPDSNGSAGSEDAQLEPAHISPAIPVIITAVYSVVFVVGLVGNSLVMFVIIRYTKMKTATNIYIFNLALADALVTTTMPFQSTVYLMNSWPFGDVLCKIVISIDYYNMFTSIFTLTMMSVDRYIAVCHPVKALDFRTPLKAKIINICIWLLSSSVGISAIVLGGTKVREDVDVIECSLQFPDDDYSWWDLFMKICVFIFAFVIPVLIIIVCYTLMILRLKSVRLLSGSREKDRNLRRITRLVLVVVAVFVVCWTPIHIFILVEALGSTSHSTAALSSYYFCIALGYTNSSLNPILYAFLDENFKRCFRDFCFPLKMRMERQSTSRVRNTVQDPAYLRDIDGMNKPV
T7 sequence (P34972 whole entry): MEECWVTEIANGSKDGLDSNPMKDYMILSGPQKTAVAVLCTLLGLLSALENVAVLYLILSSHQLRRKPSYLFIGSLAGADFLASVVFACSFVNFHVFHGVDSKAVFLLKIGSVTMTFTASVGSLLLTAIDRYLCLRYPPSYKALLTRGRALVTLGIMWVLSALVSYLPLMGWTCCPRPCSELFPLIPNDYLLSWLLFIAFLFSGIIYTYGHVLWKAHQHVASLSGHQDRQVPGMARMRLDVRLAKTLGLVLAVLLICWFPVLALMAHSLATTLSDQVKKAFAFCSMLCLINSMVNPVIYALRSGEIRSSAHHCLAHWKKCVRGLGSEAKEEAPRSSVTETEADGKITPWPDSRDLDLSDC
T8 sequence (P21554 whole entry): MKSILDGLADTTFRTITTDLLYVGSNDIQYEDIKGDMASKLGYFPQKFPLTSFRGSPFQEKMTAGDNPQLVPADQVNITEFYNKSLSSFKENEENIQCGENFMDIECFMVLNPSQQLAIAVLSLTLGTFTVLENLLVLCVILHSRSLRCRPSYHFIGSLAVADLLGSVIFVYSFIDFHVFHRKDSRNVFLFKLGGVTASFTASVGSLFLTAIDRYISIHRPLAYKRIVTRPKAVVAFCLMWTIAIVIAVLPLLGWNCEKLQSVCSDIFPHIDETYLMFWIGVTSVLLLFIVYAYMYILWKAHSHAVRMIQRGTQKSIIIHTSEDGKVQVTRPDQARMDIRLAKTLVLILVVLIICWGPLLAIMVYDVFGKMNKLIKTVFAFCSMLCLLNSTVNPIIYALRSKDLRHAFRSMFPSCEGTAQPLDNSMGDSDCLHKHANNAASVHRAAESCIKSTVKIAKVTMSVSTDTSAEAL
T3 sequence (Q01196 whole entry, the tested form may be a part): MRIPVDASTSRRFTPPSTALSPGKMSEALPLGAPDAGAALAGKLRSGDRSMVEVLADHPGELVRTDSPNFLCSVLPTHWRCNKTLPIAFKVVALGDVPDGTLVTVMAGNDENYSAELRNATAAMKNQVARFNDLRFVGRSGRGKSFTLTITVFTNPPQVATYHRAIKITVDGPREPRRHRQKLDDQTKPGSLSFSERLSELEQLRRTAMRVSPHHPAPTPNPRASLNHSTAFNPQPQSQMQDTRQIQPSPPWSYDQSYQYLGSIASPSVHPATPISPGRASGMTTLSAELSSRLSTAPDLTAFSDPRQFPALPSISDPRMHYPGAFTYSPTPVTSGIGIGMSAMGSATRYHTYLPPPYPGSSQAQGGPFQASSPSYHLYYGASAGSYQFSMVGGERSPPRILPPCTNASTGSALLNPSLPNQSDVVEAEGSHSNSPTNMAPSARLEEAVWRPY
T3 sequence (Q13951 whole entry, the tested form may be a part): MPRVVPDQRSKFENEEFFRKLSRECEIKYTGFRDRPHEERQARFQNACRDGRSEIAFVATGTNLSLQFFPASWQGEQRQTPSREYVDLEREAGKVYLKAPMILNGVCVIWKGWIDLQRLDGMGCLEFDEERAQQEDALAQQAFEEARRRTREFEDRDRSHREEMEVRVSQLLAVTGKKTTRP
T2 sequence (P98170 whole entry): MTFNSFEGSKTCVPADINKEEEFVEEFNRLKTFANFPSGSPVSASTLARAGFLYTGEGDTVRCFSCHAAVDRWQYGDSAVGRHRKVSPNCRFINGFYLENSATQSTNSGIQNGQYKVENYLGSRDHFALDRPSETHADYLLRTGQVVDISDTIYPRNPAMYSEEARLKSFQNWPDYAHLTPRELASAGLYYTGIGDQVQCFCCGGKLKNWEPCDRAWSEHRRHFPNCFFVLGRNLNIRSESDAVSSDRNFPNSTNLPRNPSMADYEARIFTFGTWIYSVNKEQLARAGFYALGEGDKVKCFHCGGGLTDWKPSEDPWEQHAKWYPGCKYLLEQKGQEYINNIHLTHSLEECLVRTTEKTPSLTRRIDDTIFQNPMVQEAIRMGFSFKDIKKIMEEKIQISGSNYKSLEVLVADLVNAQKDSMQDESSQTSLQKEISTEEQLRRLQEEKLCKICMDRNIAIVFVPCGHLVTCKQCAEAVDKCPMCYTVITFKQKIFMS
T9 sequence (Q9HC97 whole entry): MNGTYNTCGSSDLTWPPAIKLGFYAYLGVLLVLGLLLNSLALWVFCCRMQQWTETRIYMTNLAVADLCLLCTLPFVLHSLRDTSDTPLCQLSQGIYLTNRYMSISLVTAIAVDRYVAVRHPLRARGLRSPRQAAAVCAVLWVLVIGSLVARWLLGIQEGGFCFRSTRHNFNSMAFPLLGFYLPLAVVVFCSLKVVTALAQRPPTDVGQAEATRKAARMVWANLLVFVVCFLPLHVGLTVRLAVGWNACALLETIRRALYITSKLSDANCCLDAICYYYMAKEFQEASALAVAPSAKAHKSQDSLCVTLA
Chain of Cytochrome P450 2C19 (P33261 whole entry): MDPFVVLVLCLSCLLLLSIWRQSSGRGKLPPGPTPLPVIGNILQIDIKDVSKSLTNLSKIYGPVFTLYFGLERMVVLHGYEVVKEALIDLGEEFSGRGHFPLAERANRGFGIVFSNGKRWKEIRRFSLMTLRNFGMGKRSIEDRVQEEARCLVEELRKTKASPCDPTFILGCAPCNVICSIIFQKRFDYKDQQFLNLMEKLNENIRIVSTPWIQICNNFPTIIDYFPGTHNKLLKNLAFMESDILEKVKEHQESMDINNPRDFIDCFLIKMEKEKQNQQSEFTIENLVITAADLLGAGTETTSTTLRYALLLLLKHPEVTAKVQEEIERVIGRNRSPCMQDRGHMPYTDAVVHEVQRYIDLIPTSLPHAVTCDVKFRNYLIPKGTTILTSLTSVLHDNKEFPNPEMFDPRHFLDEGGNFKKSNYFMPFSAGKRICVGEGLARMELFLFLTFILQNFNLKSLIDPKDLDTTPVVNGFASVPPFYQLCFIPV
Chain of Lysosomal acid glucosylceramidase (P04062 whole entry): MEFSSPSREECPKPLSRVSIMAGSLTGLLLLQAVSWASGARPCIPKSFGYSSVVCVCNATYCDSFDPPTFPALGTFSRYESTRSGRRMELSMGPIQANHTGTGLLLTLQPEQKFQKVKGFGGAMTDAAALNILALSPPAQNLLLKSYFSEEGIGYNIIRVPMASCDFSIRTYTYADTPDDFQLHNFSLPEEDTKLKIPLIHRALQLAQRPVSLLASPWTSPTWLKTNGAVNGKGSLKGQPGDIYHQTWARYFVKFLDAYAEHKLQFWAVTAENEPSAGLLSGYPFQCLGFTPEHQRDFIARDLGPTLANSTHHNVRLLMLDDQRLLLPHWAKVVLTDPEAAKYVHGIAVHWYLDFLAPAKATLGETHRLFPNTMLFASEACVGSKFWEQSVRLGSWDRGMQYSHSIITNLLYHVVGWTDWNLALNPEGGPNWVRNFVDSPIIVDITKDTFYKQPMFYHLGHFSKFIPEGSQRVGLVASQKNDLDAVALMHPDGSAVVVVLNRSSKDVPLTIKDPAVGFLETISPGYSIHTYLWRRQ
Chain of Mu-type opioid receptor (P35372 whole entry): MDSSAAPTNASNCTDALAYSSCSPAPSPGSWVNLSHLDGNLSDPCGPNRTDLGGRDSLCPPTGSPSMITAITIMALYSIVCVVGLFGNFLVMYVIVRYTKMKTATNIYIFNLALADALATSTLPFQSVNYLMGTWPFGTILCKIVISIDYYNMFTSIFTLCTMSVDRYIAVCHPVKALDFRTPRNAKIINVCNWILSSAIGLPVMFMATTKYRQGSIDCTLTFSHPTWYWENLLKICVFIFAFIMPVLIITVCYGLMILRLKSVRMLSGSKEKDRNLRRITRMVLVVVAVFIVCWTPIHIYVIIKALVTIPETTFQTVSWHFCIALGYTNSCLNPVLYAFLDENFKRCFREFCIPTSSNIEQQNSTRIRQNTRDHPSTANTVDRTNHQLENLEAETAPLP
Chain of Delta-type opioid receptor (P41143 whole entry): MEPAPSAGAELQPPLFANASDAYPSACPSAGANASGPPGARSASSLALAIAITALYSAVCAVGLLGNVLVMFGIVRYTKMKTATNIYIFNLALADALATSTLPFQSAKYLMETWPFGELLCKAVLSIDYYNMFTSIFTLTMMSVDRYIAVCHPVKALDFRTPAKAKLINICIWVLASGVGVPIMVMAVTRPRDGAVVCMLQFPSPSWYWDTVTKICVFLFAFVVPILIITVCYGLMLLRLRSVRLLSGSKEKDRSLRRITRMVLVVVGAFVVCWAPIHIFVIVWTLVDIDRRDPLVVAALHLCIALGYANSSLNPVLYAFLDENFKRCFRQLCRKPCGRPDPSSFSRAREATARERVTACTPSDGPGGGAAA
Chain of Beta Lactamase (Q932Y6 whole entry): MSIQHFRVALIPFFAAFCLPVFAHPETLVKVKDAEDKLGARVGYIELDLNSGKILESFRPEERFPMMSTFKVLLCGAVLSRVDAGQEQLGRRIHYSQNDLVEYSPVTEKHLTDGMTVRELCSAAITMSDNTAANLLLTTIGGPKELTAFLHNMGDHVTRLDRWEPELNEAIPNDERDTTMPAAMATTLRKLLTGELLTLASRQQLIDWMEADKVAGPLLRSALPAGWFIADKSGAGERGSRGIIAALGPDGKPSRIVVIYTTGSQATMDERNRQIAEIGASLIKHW

## COc1ccc(C(=O)n2nc(-c3ccccc3)nc2N)cc1OC
[1]
  IC50: 2.6 µM (active)
[2]
  IC50: 19.2 µM (not active)
[3]
  EC50: > 10 µM (not active)

## COc1ccc(NC2=NC(=O)/C(=C\c3ccco3)S2)cc1
[4]
  IC50: 9.8 µM (active)

## O=C(COc1ccc(F)cc1Cl)N[C@H]1CCCN(Cc2ccccc2)C1
[5]
  EC50: 10 µM (active)

## Cc1ccc(-c2cc(C(=O)NC3=NCCS3)c3ccccc3n2)cc1C
[6]
  IC50: > 100 µM (not active)
[7]
  IC50: > 100 µM (inactive)

## OCCNc1c2ccccc2nc2c(F)c(F)c(F)c(F)c12
[8]
  IC50: 38.7 µM (active)
[9]
  EC50: 2.16 µM (active)
[10]
  IC50: > 100 µM (inactive)
[11]
  EC50: 3.83 µM (active)
[12]
  IC50: 2.27 µM (active)
[13]
  EC50: > 69.5 µM (inactive)
[14]
  AC50: 4.14 µM (active)
[15]
  IC50: 3.97 µM (active)

## CCSc1nc(O)c(CC)c(=O)n1C(C)CC (stereo not given)
[16]
  EC50: > 100 µM (inactive)

## Cc1ccnc2c1n1cccc1c(=O)n2CC(=O)NCCCN1CCN(c2ccc3c(c2)OCO3)CC1
[17]
  IC50: 0.0451 µM (active)
[18]
  IC50: 0.369 µM (active)
[19]
  IC50: 17.2 µM (inactive)
[20]
  IC50: 0.482 µM (active)
[21]
  IC50: > 32 µM (inactive)

## N=c1c(C(=O)NC2CCCC2)cc2c(=O)n3ccccc3nc2n1C1CCCC1
[22]
  EC50: > 32 µM (inactive)
[23]
  IC50: > 32 µM (inactive)
[24]
  EC50: > 32 µM (inactive)
[25]
  AC50: 3.55 µM (inconclusive)
[26]
  IC50: > 32 µM (inactive)
[27]
  IC50: > 32 µM (inactive)
[28]
  AC50: 11.2 µM (inconclusive)
[29]
  EC50: > 32 µM (inactive)
[30]
  IC50: > 32 µM (inactive)

Reference: ChEMBL document CHEMBL1201862, “PubChem BioAssay data set” (2004)
